Results from patent US10933030B2, “Use of paeonol for inhibiting angiogenesis or for enhancing radiosensitization” (priority 2005, dated 2021).

Tests used:
B16BL6 melanoma cells [1] = assay: Tumor growth, paeonol in combination with 5-FU; assay type: in vivo; conditions: 5-FU 70 mg/kg i.p. at day 3 and 6; paeonol 1 mg per mouse oral twice a day for 21 days
Experimental: Synergy effect of paeonol in combination with anti-cancer drug, 5-fluorouracil (5-FU) was investigated. For the induction of primary tumor, B16BL6 melanoma cells (1×10^6) suspended in 0.2 ml of PBS were subcutaneously injected into C57BL6 female mice (SLC Co., Japan; 6 week-old, 20-25 g of body weight) adapted for 1 week. […] The size of tumor was measured once per 1-2 days for 21 days after injecting cancer cells and then the volume of tumor was calculated in accordance with the following equation, (width)^2×(length)×0.52.

B16BL6 melanoma cells [2] = assay: Lifetime elongation, paeonol in combination with 5-FU; assay type: in vivo, mouse; conditions: after 22 days, n=7
Experimental: Effects of paeonol on lifetime elongation of tumor-induced mice were investigated.
(§1) For the induction of primary tumor, B16BL6 melanoma cells (1×10^6) suspended in 0.2 ml of PBS were subcutaneously injected into C57BL6 female mice (SLC Co., Japan; 6 week-old, 20-25 g of body weight) adapted for 1 week.
In 5-FU & paeonol treated group, 70 mg/kg per mouse of 5-FU was intraperitoneally injected at 3 day and 6 day after injecting cancer cells, and 1 mg per mouse of paeonol dissolved in 0.2 ml of 20% ethanol was orally administrated twice a day for 21 days after injecting cancer cells. In 5-FU treated group, 70 mg/kg per mouse of 5-FU was treated in the same manner as 5-FU & paeonol treated group. In the other hand, 0.2 ml of 20% ethanol was also orally administrated into control group and 5-FU treated group in the same manner as 5-FU & paeonol treated group.

angiogenesis = assay: Mouse Matrigel model of angiogenesis (hemoglobin in Matrigel); assay type: in vivo; conditions: oral 0.5 mg per mouse twice a day (1 mg/day) for 4 days
Experimental: Effects of oral administration of paeonol on angiogenesis were quantitatively investigated in mouse Matrigel model. […] 0.5 mg of the above isolated paeonol was dissolved in 0.2 ml of 20% ethanol, and then 0.5 mg per mouse of paeonol (1 mg/day) was orally administrated into the treated group (n=8) twice a day for 4 days. In the other hand, 0.2 ml of 20% ethanol was also orally administrated into the control group (n=8) in the same manner as treated group. On the fifth day of oral administration, Matrigel was separated from excised skin of each mouse, and the level of hemoglobin in the Matrigel was measured in order to determine the inhibition of angiogenesis quantitatively.

B16BL6 melanoma cells [3] = assay: Growth of solid tumor in B16BL6 melanoma-injected mice; assay type: in vivo, mouse; conditions: oral 1 mg per day for 17 days; compared with control group
Experimental: Effects of administering the present composition comprising paeonol on the growth of solid tumor were investigated. For the induction of primary tumor, B16BL6 melanoma cells (1×10^6) suspended in 0.2 ml of PBS ([…]) were subcutaneously injected into C57BL6 female mice (SLC Co., Japan; 6 week-old, 20-25 g of body weight) adapted for 1 week. 0.5 mg of the above isolated paeonol was dissolved in 0.2 ml of 20% ethanol, and then 0.5 mg per mouse of paeonol (1 mg/day) was orally administrated into the treated group (n=7) twice a day for 17 days after injecting cancer cells. In the other hand, 0.2 ml of 20% ethanol was also orally administrated into the control group (n=7) in the same manner as treated group. The size of tumor was measured once per 1-2 days for 17 days after injecting cancer cells and then the volume of tumor was calculated in accordance with the following equation, (width)^2×(length)×0.52.

B16BL6 melanoma cells [4] = assay: Lifetime elongation of tumor-induced mice; assay type: in vivo, mouse; conditions: after 22 days; oral 1 mg/day; n=7
Experimental: Effects of the present composition comprising paeonol on lifetime elongation of tumor-induced mice were investigated.
as §1
0.5 mg of the above isolated paeonol was dissolved in 0.2 ml of 20% ethanol, and then 0.5 mg per mouse of paeonol (1 mg/day) was orally administrated into the treated group (n=7) twice a day for 22 days after injecting cancer cells. In the other hand, 0.2 ml of 20% ethanol was also orally administrated into the control group (n=7) in the same manner as treated group.

B16BL6 melanoma cells [5] = assay: Tumor metastasis into lung after intravenous injection of melanoma cells; assay type: in vivo, mouse
Experimental: Inhibitory effects of the present composition comprising paeonol on tumor metastasis in tumor-induced mice were investigated. […] 0.25 mg of the above isolated paeonol was dissolved in 0.2 ml of 20% ethanol, and then 0.25 mg per mouse of paeonol (0.5 mg/day) was orally administrated into the treated group (n=6) twice a day for 14 days after injecting cancer cells. In the other hand, 0.2 ml of 20% ethanol was also orally administrated into the control group (n=6) in the same manner as treated group. After 14 days, mice were dissected, and then the numbers of colonies, which metastasized into lung, were counted.

[6] = test system: human lung carcinoma cell line H460; assay: Radiosensitization, clone formation of lung carcinoma cell line H460; assay type: cell-based
Experimental: […] At 7 day after irradiation, the clone formation (%) of each groups were measured and then the survival rates of each groups were compared with each other. Irradiation with high dose of radiation into cancer cell line prevents clone formation.

[7] = test system: uterine carcinoma cell line HeLa; assay: Radiosensitization, clone formation of uterine carcinoma cell line HeLa; assay type: cell-based, human
Experimental: […] At 7 day after irradiation, the clone formation (%) of each groups were measured and then the survival rates of each groups were compared with each other.

[8] = test system: mouse lung carcinoma cell line, LLC (Lewis lung carcinoma); assay: Radiosensitization in LLC-transplanted mice, tumor growth rate; assay type: in vivo; conditions: for tumor growth rate went down as compared with control group: 5 mg/kg oral
Experimental: Effect of treatment of paeonol during radiation into lung carcinoma cell line-transplanted animal on radiosensitization was investigated. 1×10^6 of mouse lung carcinoma cell line, LLC (Lewis lung carcinoma) cell were suspended in 0.2 ml of PBS, and then were injected into left leg of mouse in order to induce the tumor. LLC-transplanted mice were classified into 4 groups such as control group (n=10), irradiation-treated group (n=10), paeonol-treated group (n=10), and irradiation & paeonol-treated group (n=10). […] For control group and irradiation group, 20% ethanol was orally administered in the same manner as paeonol-treated group. […] The sizes (width, length) of tumor were measured for 30 days at an interval of 2 or 3 days, and then the volumes of tumor were calculated by the following equation, (width)^2×(length)×0.52. The tumor growth rates were also calculated by converting into the time which it takes for tumor volume to be 2000 mm^3.

[9] = test system: mouse lung carcinoma cell line, LLC (Lewis lung carcinoma); assay: Radiosensitization in LLC-transplanted mice, survival; assay type: in vivo; conditions: for survival of mice: 5 mg/kg oral
Experimental: Effect of treatment of paeonol during radiation into lung carcinoma cell line-transplanted animal on radiosensitization was investigated.
1×10^6 of mouse lung carcinoma cell line, LLC (Lewis lung carcinoma) cell were suspended in 0.2 ml of PBS, and then were injected into left leg of mouse in order to induce the tumor. LLC-transplanted mice were classified into 4 groups such as control group (n=10), irradiation-treated group (n=10), paeonol-treated group (n=10), and irradiation & paeonol-treated group (n=10).
After the volumes of tumor were about 100-200 mm^3 (6-7 day after LLC injection), 5 Gy of ^60Co radiation was irradiated to irradiation-treated group and irradiation & paeonol-treated group three times at an interval of 2 or 3 days.
After the existence of tumor was detected by touching with hand (4 day after LLC injection), 5 mg/kg of paeonol dissolved in 20% ethanol was orally administered into paeonol-treated group and irradiation & paeonol group once a day for 20 days. For control group and irradiation group, 20% ethanol was orally administered in the same manner as paeonol-treated group.
Enhancing effects of paeonol in combination with radiation on efficacy of radiotherapy was determined by comparing both tumor growth rates and mouse survival rates of 4 groups with each other groups.

B16BL6 melanoma cells [10] = assay: Radiosensitization in melanoma-transplanted mice, tumor volume; assay type: in vivo, mouse; conditions: for decrease of tumor volume compared with control group: paeonol-treated group, no irradiation
Experimental: Effect of treatment of paeonol during radiation into melanoma-transplanted animal on radiosensitization was investigated. In order to induce primary tumor, B16BL6 melanoma cells (1×10^6) suspended in 0.2 ml of PBS was subcutaneously injected into C57BL6 female mice (SLC Co., Japan; 6 week-old […]) adapted for 1 week. Melanoma-transplanted mice were classified into 6 groups: control group (n=10), irradiation group (n=10), paeonol-treated groups (0.5 or 1 mg/kg per day) (n=10), and irradiation & paeonol-treated groups (0.5 or 1 mg/kg per day) (n=10), and then it was observed whether the combinational treatment of irradiation and paeonol enhances the radiosensitization of melanoma-transplanted animal. […] For control group and irradiation group, 20% ethanol was orally administered in the same manner as paeonol-treated group. The sizes (width, length) of tumor were measured for 30 days at an interval of 2 or 3 days, and then the volumes of tumor were calculated by the following equation, (width)^2×(length)×0.52.

[11] = test system: normal human lung cell (BEAS-2B); assay: Cytotoxicity test by MTT assay, normal lung cell; assay type: cell-based
Experimental: (§2) In order to examine the cytotoxicity of paeonol, 2×10^5 of normal human lung cell (BEAS-2B), human lung carcinoma cell (NCI-H460), human uterine carcinoma cell (HeLa) were treated with various concentrations (0.25, 0.5, 1, 2, 10 μg/ml) of paeonol for 24 hours, and then viabilities of each cells were measured by MTT assay.

[12] = test system: human lung carcinoma cell (NCI-H460); assay: Cytotoxicity test by MTT assay, lung carcinoma cell; assay type: cell-based
Experimental: as §2

[13] = test system: human uterine carcinoma cell (HeLa); assay: Cytotoxicity test by MTT assay, uterine carcinoma cell; assay type: cell-based
Experimental: as §2

[14] = Acute toxicity test in animal; assay type: in vivo; conditions: dosage of 100 mg/kg
[15] = Radiation 0 Gy, paeonol 1 μg/ml, 7 day
[16] = Radiation 0 Gy, paeonol 2 μg/ml, 7 day
[17] = Radiation 1 Gy, paeonol 2 μg/ml, 7 day after irradiation
[18] = Radiation 2 Gy, paeonol 1 μg/ml, 7 day after irradiation
[19] = Radiation 2 Gy, paeonol 2 μg/ml, 7 day after irradiation
[20] = Radiation 3 Gy, paeonol 1 μg/ml, 7 day after irradiation
[21] = Radiation 3 Gy, paeonol 2 μg/ml, 7 day after irradiation
[22] = 10 μg/ml of paeonol, 24 hours, MTT

## O=c1[nH]cc(F)c(=O)[nH]1 [Compound 5-FU, 5-fluorouracil]
B16BL6 melanoma cells [1]
  inhibition of tumor growth compared with control group: 50%
B16BL6 melanoma cells [2]; 5-FU 70 mg/kg i.p. at day 3 and 6, paeonol 1 mg per mouse oral twice a day
  survival rate: 14%
B16BL6 melanoma cells [2]
  number of mice survived: one

## COc1ccc(C(C)=O)c(O)c1 [paeonol]
angiogenesis
  inhibition of angiogenesis: about 67%
angiogenesis; Matrigel with bFGF and heparin
  hemoglobin content of treated group as compared with control group: 33%
B16BL6 melanoma cells [3]
  inhibition of tumor growth: 48%
B16BL6 melanoma cells [4]
  number of mice survived: three
  survival rate: 43%
B16BL6 melanoma cells [5]; oral 0.25 mg per mouse twice a day (0.5 mg/day) for 14 days, control 213±60
  colonies metastasized into lung per mouse: 132±80 colonies
B16BL6 melanoma cells [5]; oral 0.5 mg/day for 14 days
  inhibition of metastasis into lung: 38%
[6]; 1 μg/ml of paeonol
  decrease of clone formation compared with control group irradiated with 3 Gy: 16%
[6]; 2 μg/ml of paeonol
  decrease of clone formation compared with control group irradiated with 3 Gy: 31%
[6]; [15]
  Clone formation (%): 100%
[6]; [16]
  Clone formation (%): 100%
[6]; [17]
  Clone formation (%): 71.1%
[6]; Radiation 1 Gy, paeonol 12 μg/ml, 7 day after irradiation
  Clone formation (%): 72.5%
[6]; [18]
  Clone formation (%): 46.4%
[6]; [19]
  Clone formation (%): 43.3%
[6]; [20]
  Clone formation (%): 25.8%
[6]; [21]
  Clone formation (%): 21.2%
[7]; 1 μg/ml of paeonol
  decrease of clone formation compared with control group irradiated with 3 Gy: 23%
[7]; 2 μg/ml of paeonol
  decrease of clone formation compared with control group irradiated with 3 Gy: 39%
[7]; [15]
  Clone formation (%): 100%
[7]; [16]
  Clone formation (%): 100%
[7]; Radiation 1 Gy, paeonol 1 μg/ml, 7 day after irradiation
  Clone formation (%): 73.4%
[7]; [17]
  Clone formation (%): 72.8%
[7]; [18]
  Clone formation (%): 45.5%
[7]; [19]
  Clone formation (%): 44.7%
[7]; [20]
  Clone formation (%): 12.3%
[7]; [21]
  Clone formation (%): 10.9%
[8]; irradiation & paeonol-treated group, 5 Gy three times
  tumor growth rate went down as compared with control group: 1.4 fold
[8]; irradiation & paeonol-treated group: 5 Gy 60Co three times, paeonol 5 mg/kg oral once a day for 20 days, control 16, irradiation alone 19
  Tumor growth rate (Time which it takes for tumor volume to be 2000 mm^3): 22 days
[8]; paeonol-treated group, 5 mg/kg oral once a day for 20 days, no irradiation, control 16
  Tumor growth rate (Time which it takes for tumor volume to be 2000 mm^3): 19 days
[8]; paeonol-treated group, no irradiation
  tumor growth rate went down as compared with control group: 1.2 fold
[9]; irradiation & paeonol-treated group
  increase of survival rate compared with control group: about 2 times
[9]; irradiation & paeonol-treated group, 5 Gy three times, control 42, irradiation alone 60
  survival of mice: 78 days
[9]; paeonol-treated group, no irradiation, control 42
  survival of mice: 69 days
B16BL6 melanoma cells [10]; irradiation & paeonol-treated groups (0.5 or 1.0 mg/kg), 5 Gy at 4 and 6 day, irradiation alone 33.1%
  decrease of tumor volume compared with control group, maximum: ≤ 58.9%
B16BL6 melanoma cells [10]; 0.5 mg/kg oral once a day
  decrease of tumor volume compared with control group: 6.4%
B16BL6 melanoma cells [10]; 1.0 mg/kg oral once a day
  decrease of tumor volume compared with control group: 9.3%
[11]; [22]
  cytotoxicity: 6%
[11]; human
  LD50: did not show enough toxicity to calculate LD50
[12]; [22]
  cytotoxicity: 18%
[12]; human
  LD50: did not show enough toxicity to calculate LD50
[13]; [22]
  cytotoxicity: 15%
[13]; human
  LD50: did not show enough toxicity to calculate LD50
[14]
  side effects during administration: no side effects
